Measurements reported in US12435044B2, “Pyridazinone herbicides and pyridazinone intermediates used to prepare a herbicide” (FMC Corporation, priority 2018, dated 2025).

Tests used:
Type in all cases: in vivo
[1] = tested on: rice flatsedge (Cyperus iria); assay: Test F flooded paddy test; conditions: Flood, after 21 d
Excerpt: (§1) Three plastic pots (ca. 16-cm diameter) per rate were partially filled with sterilized Tama silt loam soil comprising a 35:50:15 ratio of sand, silt and clay and 2.6% organic matter. Separate plantings for each of the three pots were as follows. Seeds from the U.S. of monochoria (Monochoria vaginalis), sedge, umbrella (small-flower umbrella sedge, Cyperus difformis) and redstem (purple redstem, Ammannia coccinea), were planted into one 16-cm pot for each rate. Seeds from the U.S. of rice flatsedge (Cyperus iria), sprangletop, Brdd. (bearded sprangletop, Leptochloa fascicularis), one stand of 9 or 10 water seeded rice seedlings (Rice, W. S. Jap, Oryza sativa cv. ‘Japonica-M202’ or Rice, W. S. Ind, ‘Indica’), and two stands of 3 or 4 transplanted rice seedlings (Oryza sativa cv. ‘Japonica-M202’) were planted into one 16-cm pot for each rate. Seeds from the U.S. of barnyardgrass (Echinochloa crus-galli), and late watergrass (Echinochloa oryzicola) were planted into one 16-cm pot for each rate.
(§2) Plantings were sequential so that crop and weed species were at the 2.0 to 2.5-leaf stage at time of treatment.
(§3) Potted plants were grown in a greenhouse with day/night temperature settings of 30/27° C., and supplemental balanced lighting was provided to maintain a 16-hour photoperiod. Test pots were maintained in the greenhouse until test completion.
(§4) At time of treatment, test pots were flooded to 3 cm above the soil surface, treated by application of test compounds directly to the paddy water, and then maintained at that water depth for the duration of the test. Effects of treatments on rice and weeds were visually evaluated by comparison to untreated controls after 21 d. Plant response ratings, summarized in Table F, are based on a scale of 0 to 100 where 0 is no effect and 100 is complete control. A dash (-) response means no test result.

[2] = tested on: sedge, umbrella (small-flower umbrella sedge, Cyperus difformis); assay: Test F flooded paddy test; conditions: Flood, after 21 d
Excerpt: as §1, §2, §3, §4

[3] = tested on: lambsquarters (Chenopodium album); assay: Test E pre-/postemergence greenhouse test; conditions: Preemergence
Excerpt: (§5) Seeds of plant species selected from corn (Zea mays), soybean (Glycine max), velvetleaf (Abutilon theophrasti), lambsquarters (Chenopodium album), poinsettia, wild (Euphorbia heterophylla), pigweed, palmer (Amaranthus palmeri), waterhemp (common waterhemp, Amaranthus rudis), surinam grass (Brachiaria decumbens), crabgrass, large (Digitaria sanguinalis), crabgrass, Brazil (Digitaria horizontalis), panicum, fall (Panicum dichotomiflorum), foxtail, giant (Setaria faberii), foxtail, green (Setaria viridis), goosegrass (Eleusine indica), johnsongrass (Sorghum halepense), ragweed (common ragweed, Ambrosia elatior), barnyardgrass (Echinochloa crus-galli), sandbur (southern sandbur, Cenchrus echinatus), arrowleaf sida (Sida rhombifolia), ryegrass, Italian (Lolium multiflorum), dayflower, VA (Virginia (VA) dayflower, Commelina virginica), field bindweed (Convolvulus arvensis), morningglory (Ipomoea coccinea), horseweed (Conyza canadensis), kochia (Kochia scoparia), nutsedge, yellow (Cyperus esculentus) and hairy beggarticks (Bidenspilosa), were planted into a silt loam soil and treated preemergence with test chemicals formulated in a non-phytotoxic solvent mixture which included a surfactant.
(§6) At the same time, plants selected from these crop and weed species and also waterhemp_RES1, (ALS & Triazine resistant common waterhemp, Amaranthus rudis), and waterhemp_RES2, (ALS & HPPD resistant common waterhemp, Amaranthus rudis) were planted in pots containing Redi-Earth® planting medium (Scotts Company, 14111 Scottslawn Road, Marysville, Ohio 43041) comprising spaghnum peat moss, vermiculite, wetting agent and starter nutrients were treated with postemergence applications of test chemicals formulated in the same manner. Plants ranged in height from 2 to 18 cm for postemergence treatments (1- to 4-leaf stage). Treated plants and controls were maintained in a greenhouse for 14 to 21 d, after which time all species were compared to controls and visually evaluated. Plant response ratings, summarized in Table E, are based on a scale of 0 to 100 where 0 is no effect and 100 is complete control. A dash (-) response means no test result.

[4] = tested on: sandbur (southern sandbur, Cenchrus echinatus); assay: Test E pre-/postemergence greenhouse test
Excerpt: as §5, §6

[5] = tested on: kochia (Kochia scoparia); assay: Test E pre-/postemergence greenhouse test
Excerpt: as §5, §6

[6] = tested on: crabgrass, Brazil (Digitaria horizontalis); assay: Test E pre-/postemergence greenhouse test
Excerpt: as §5, §6

[7] = tested on: hairy beggarticks (Bidenspilosa); assay: Test E pre-/postemergence greenhouse test
Excerpt: as §5, §6

[8] = tested on: nutsedge, yellow (Cyperus esculentus); assay: Test E pre-/postemergence greenhouse test; conditions: Preemergence
Excerpt: as §5, §6

[9] = tested on: arrowleaf sida (Sida rhombifolia); assay: Test E pre-/postemergence greenhouse test
Excerpt: as §5, §6

[10] = tested on: dayflower, VA (Virginia (VA) dayflower, Commelina virginica); assay: Test E pre-/postemergence greenhouse test
Excerpt: as §5, §6

[11] = tested on: sprangletop, Brdd. (bearded sprangletop, Leptochloa fascicularis); assay: Test F flooded paddy test; conditions: Flood, after 21 d
Excerpt: as §1, §2, §3, §4

Cc1ccc2ccc(C)c(-c3c(O)c(Cl)nn(C)c3=O)c2c1 [Cpd. No. 20, 6-chloro-4-(2,7-dimethyl-1-naphthalenyl)-5-hydroxy-2-methyl-3(2H)-pyridazinone]
Plant response rating (0 to 100 scale) ([1]; 31 g ai/ha): 70
Plant response rating (0 to 100 scale) ([1]; 62 g ai/ha): 85
Plant response rating (0 to 100 scale) ([1]; 125 g ai/ha): 97
Plant response rating (0 to 100 scale) ([1]; 250 g ai/ha): 100
Plant response rating (0 to 100 scale) ([2]; 31 g ai/ha): 0
Plant response rating (0 to 100 scale) ([2]; 62 g ai/ha): 60
Plant response rating (0 to 100 scale) ([2]; 125 g ai/ha): 95
Plant response rating (0 to 100 scale) ([2]; 250 g ai/ha): 100
Plant response rating, Lambsquarters ([3]; 16 g ai/ha): 80
Plant response rating, Lambsquarters ([3]; 31 g ai/ha): 95
Plant response rating, Lambsquarters ([3]; 62 g ai/ha): 98
Plant response rating, Lambsquarters ([3]; 125 g ai/ha): 100
Plant response rating, Sandbur ([4]; Postemergence, 16 g ai/ha): 60
Plant response rating, Sandbur ([4]; Postemergence, 31 g ai/ha): 60
Plant response rating, Sandbur ([4]; Postemergence, 62 g ai/ha): 70
Plant response rating, Sandbur ([4]; Postemergence, 125 g ai/ha): 85
Plant response rating, Sandbur ([4]; Preemergence, 16 g ai/ha): 30
Plant response rating, Sandbur ([4]; Preemergence, 31 g ai/ha): 75
Plant response rating, Sandbur ([4]; Preemergence, 62 g ai/ha): 85
Plant response rating, Sandbur ([4]; Preemergence, 125 g ai/ha): 90
Plant response rating, Kochia ([5]; Postemergence, 16 g ai/ha): 80
Plant response rating, Kochia ([5]; Postemergence, 31 g ai/ha): 75
Plant response rating, Kochia ([5]; Postemergence, 62 g ai/ha): 80
Plant response rating, Kochia ([5]; Postemergence, 125 g ai/ha): 90
Plant response rating, Kochia ([5]; Preemergence, 16 g ai/ha): 0
Plant response rating, Kochia ([5]; Preemergence, 31 g ai/ha): 50
Plant response rating, Kochia ([5]; Preemergence, 62 g ai/ha): 70
Plant response rating, Kochia ([5]; Preemergence, 125 g ai/ha): 85
Plant response rating, Crabgrass, Brazil ([6]; Postemergence, 16 g ai/ha): 20
Plant response rating, Crabgrass, Brazil ([6]; Postemergence, 31 g ai/ha): 40
Plant response rating, Crabgrass, Brazil ([6]; Postemergence, 62 g ai/ha): 60
Plant response rating, Crabgrass, Brazil ([6]; Postemergence, 125 g ai/ha): 85
Plant response rating, Crabgrass, Brazil ([6]; Preemergence, 16 g ai/ha): 75
Plant response rating, Crabgrass, Brazil ([6]; Preemergence, 31 g ai/ha): 90
Plant response rating, Crabgrass, Brazil ([6]; Preemergence, 62 g ai/ha): 100
Plant response rating, Crabgrass, Brazil ([6]; Preemergence, 125 g ai/ha): 100
Plant response rating, Beggarticks ([7]; Postemergence, 16 g ai/ha): 90
Plant response rating, Beggarticks ([7]; Postemergence, 31 g ai/ha): 95
Plant response rating, Beggarticks ([7]; Postemergence, 62 g ai/ha): 95
Plant response rating, Beggarticks ([7]; Postemergence, 125 g ai/ha): 100
Plant response rating, Beggarticks ([7]; Preemergence, 16 g ai/ha): 20
Plant response rating, Beggarticks ([7]; Preemergence, 31 g ai/ha): 90
Plant response rating, Beggarticks ([7]; Preemergence, 62 g ai/ha): 95
Plant response rating, Beggarticks ([7]; Preemergence, 125 g ai/ha): 100
Plant response rating, Nutsedge, Yellow ([8]; 16 g ai/ha): 10
Plant response rating, Nutsedge, Yellow ([8]; 31 g ai/ha): 15
Plant response rating, Nutsedge, Yellow ([8]; 62 g ai/ha): 75
Plant response rating, Nutsedge, Yellow ([8]; 125 g ai/ha): 75
Plant response rating, Arrowleaf Sida ([9]; Postemergence, 16 g ai/ha): 60
Plant response rating, Arrowleaf Sida ([9]; Postemergence, 31 g ai/ha): 70
Plant response rating, Arrowleaf Sida ([9]; Postemergence, 62 g ai/ha): 70
Plant response rating, Arrowleaf Sida ([9]; Postemergence, 125 g ai/ha): 75
Plant response rating, Arrowleaf Sida ([9]; Preemergence, 16 g ai/ha): 90
Plant response rating, Arrowleaf Sida ([9]; Preemergence, 31 g ai/ha): 90
Plant response rating, Arrowleaf Sida ([9]; Preemergence, 62 g ai/ha): 80
Plant response rating, Arrowleaf Sida ([9]; Preemergence, 125 g ai/ha): 85
Plant response rating, Dayflower, VA ([10]; Postemergence, 16 g ai/ha): 30
Plant response rating, Dayflower, VA ([10]; Postemergence, 31 g ai/ha): 50
Plant response rating, Dayflower, VA ([10]; Postemergence, 62 g ai/ha): 60
Plant response rating, Dayflower, VA ([10]; Postemergence, 125 g ai/ha): 70
Plant response rating, Dayflower, VA ([10]; Preemergence, 16 g ai/ha): 0
Plant response rating, Dayflower, VA ([10]; Preemergence, 31 g ai/ha): 0
Plant response rating, Dayflower, VA ([10]; Preemergence, 62 g ai/ha): 0
Plant response rating, Dayflower, VA ([10]; Preemergence, 125 g ai/ha): 5

Cc1cc(Cl)c2ccccc2c1-c1c(O)c(Cl)nn(C)c1=O [Cpd. No. 65]
Plant response rating (0 to 100 scale) ([11]; 64 g ai/ha): 98
Plant response rating (0 to 100 scale) ([11]; 125 g ai/ha): 100
